Legend:
BtCDPS [1] = target: T1, BtCDPS (Caldibacillus thermoamylovorans, UniProt A0A090KS30); test: LC-MS of cyclic dipeptide product; type: biochemical; conditions: 50 mM HEPES pH 7.5, 500 mM NaCl, 5 mM DTT, 1 mM substrate, 20 °C, 24 h
T1 construct: gene yvmC; full length (residues 1-232), codon-optimised synthetic gene, TEV-cleavable His6 tag cut, E. coli BL21(DE3), monomer

BtCDPS [2] = target: T1, BtCDPS; test: LC-HRMS of cLL product; HPLC of DBE-OH; intact protein MS of acyl-enzyme; type: biochemical; conditions: 50 mM HEPES pH 7.5, 500 mM NaCl, 5 mM DTT, 500 uM substrate, room temperature; covalent (leucyl-enzyme intermediate at S33)

T1 sequence (A0A090KS30 1-231): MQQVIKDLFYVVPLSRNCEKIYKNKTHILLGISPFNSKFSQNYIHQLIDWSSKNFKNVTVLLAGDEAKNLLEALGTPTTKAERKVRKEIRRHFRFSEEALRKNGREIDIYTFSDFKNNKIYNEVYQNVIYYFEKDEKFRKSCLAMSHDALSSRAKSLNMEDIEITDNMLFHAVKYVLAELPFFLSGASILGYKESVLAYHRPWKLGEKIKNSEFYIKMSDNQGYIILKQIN

| Compound | LC-MS of cyclic dipeptide product (BtCDPS [1]) | LC-HRMS of cLL product; HPLC of DBE-OH; intact protein MS of acyl-enzyme (BtCDPS [2]) |
| --- | --- | --- |
| CC[C@H](C)[C@H](N)C(=O)OCc1cc([N+](=O)[O-])cc([N+](=O)[O-])c1 [Ile-DBE] | Ile-DBE and Met-DBE were also substrates for BtCDPS | – |
| CC(C)C[C@H](N)C(=O)OCc1cc([N+](=O)[O-])cc([N+](=O)[O-])c1 [Leu-DBE] | – | a cyclic dipeptide (cLL) is generated by CDPS when Leu-DBE was used as a substrate |
| CSCC[C@H](N)C(=O)OCc1cc([N+](=O)[O-])cc([N+](=O)[O-])c1 [Met-DBE] | Ile-DBE and Met-DBE were also substrates for BtCDPS | – |
